Data from PMC9348534 (Advanced Pharmaceutical Bulletin, 2021).
≈ marks a conversion by molar mass, not a printed value. Where two headings read alike, the source gives them in different places.

Columns and labels:
[1] = Dissolution and stability test in buffer solution; type: physicochemical; conditions: for Appearance of solution after storage for 48 hours: 100 µM, room temperature; for Absorbance change (stability) up to 3 hours: aqueous solution, light exposure, ambient temperature, especially pH 1.0
Method: Each solution in the respected buffer was then evaluated for its stability at ambient temperature and light exposure. It measured the absorbance change at 428, 416, and 404 nm, subsequently over a time-course using a UV-1800 spectrophotometer (Shimadzu, Japan).

K562 cells [2] = experiment: Cell viability assay (trypan blue exclusion or MTT); type: cell-based, human
Text: (§1) MCF-7/HER2 and MCF-7/EV are HER2 and empty vector-transfected MCF-7 cells obtained from Prof. Yoshio Inouye (Department of Surgery, Toho University School of Medicine, Japan) through Prof. Masashi Kawaichi (Laboratory of Gene Function in Animals, NAIST, Japan). The cells of 4T1, NIH-3T3, and T47D were kindly provided by Prof. Masashi Kawaichi (Laboratory of Gene Function in Animals, NAIST, Japan). K652 cells are the collection from the Laboratory of Tumor Cell Biology, Nara Institute of Science and Technology, Japan. HCC1954 and Caco2 cell lines were given by Dr. dr. Muhammad Hasan Bashari (Faculty of Medicine, Universitas Padjajaran, Indonesia). WiDr cell line was obtained from the Faculty of Medicine, Public Health, and Nursing Universitas Gadjah Mada, Indonesia. […]
(§2) Cells were grown in 24 or 96-well microplate and then cultured for 24 h. […] After treatment, viable cells were enumerated using the trypan blue exclusion or quantified under MTT assay. […]
(§3) Molecular docking results were validated by determining the RMSD value of conformation bearing the lowest docking score representing the ∆G (kkal/mol). […] Cytotoxic potencies against several cell lines were statistically analyzed based on the IC50 values through linear regression with a P value of […].

4T1 cells [3] = experiment: as above; type: cell-based; conditions: Mus musculus; 4T1, 24 hours treatment; read-out: IC 50 value
Text: (§4) MCF-7/HER2 and MCF-7/EV are HER2 and empty vector-transfected MCF-7 cells obtained from Prof. Yoshio Inouye (Department of Surgery, Toho University School of Medicine, Japan) through Prof. Masashi Kawaichi (Laboratory of Gene Function in Animals, NAIST, Japan). The cells of 4T1, NIH-3T3, and T47D were kindly provided by Prof. Masashi Kawaichi (Laboratory of Gene Function in Animals, NAIST, Japan). K652 cells are the collection from the Laboratory of Tumor Cell Biology, Nara Institute of Science and Technology, Japan. HCC1954 and Caco2 cell lines were given by Dr. dr. Muhammad Hasan Bashari (Faculty of Medicine, Universitas Padjajaran, Indonesia). WiDr cell line was obtained from the Faculty of Medicine, Public Health, and Nursing Universitas Gadjah Mada, Indonesia. Briefly, MCF-7/HER2, MCF-7, NIH-3T3, T47D, MCF-7/EV, and 4T1 cells were cultured in Dulbecco’s Modified Eagles Medium (DMEM) high glucose (Gibco, USA), whereas HCC1954, Caco2, WiDr, K562 cells were grown in Rosewell Park Memorial Institute (RPMI) Medium. Both were supplemented with 10% (v/v) fetal bovine serum (Gibco, USA), HEPES (Sigma, USA), sodium bicarbonate (Sigma, USA), 150 IU/mL penicillin and 150 µg/mL streptomycin (Gibco) and 1.25 µg/mL amphotericin B (Gibco, USA). The cells were maintained at 37 °C with 5% CO2 in a humidified atmosphere.
(§5) Cells were grown in 24 or 96-well microplate and then cultured for 24 h. Subsequently, cells were treated with PGV-1 or CCA-1.1 at concentration series up to 10 µM, except for NIH-3T3 up to 100 µM and incubated for 24 hours. Untreated cells were used as control. After treatment, viable cells were enumerated using the trypan blue exclusion or quantified under MTT assay. The viable cells were represented as % cell viability vs. concentration of the sample, and the IC50 value or the concentration that inhibits 50% of cell growth was calculated.
(§6) Molecular docking results were validated by determining the RMSD value of conformation bearing the lowest docking score representing the ∆G (kkal/mol). The validity of the molecular docking method was represented as RMSD value < 2. Cytotoxic potencies against several cell lines were statistically analyzed based on the IC50 values through linear regression with a P value of […].

Caco2 cells = experiment: as above; type: cell-based; conditions: Homo sapiens, Caco-2; Caco2, 24 hours treatment; read-out: IC 50 value
Text: as §4, §5, §6

HCC1954 cells = experiment: as above; type: cell-based; conditions: Homo sapiens; HCC1954, 24 hours treatment; read-out: IC 50 value
Text: as §4, §5, §6

MCF-7 cells [4] = experiment: as above; type: cell-based; conditions: Homo sapiens, MCF7; MCF-7, 24 hours treatment; read-out: IC 50 value
Text: as §4, §5, §6

MCF-7/EV cells = experiment: as above; type: cell-based; conditions: Homo sapiens, MCF7, 24 hours treatment, read-out: IC 50 value
Text: as §4, §5, §6

MCF-7/HER2 cells = experiment: as above; type: cell-based; conditions: Homo sapiens, MCF7; MCF-7/HER2, 24 hours treatment; read-out: IC 50 value
Text: as §4, §5, §6

NIH-3T3 cells = experiment: as above; type: cell-based; conditions: Mus musculus, NIH3T3; NIH-3T3 (non-cancerous), concentrations up to 100 µM, 24 hours; read-out: IC 50 value
Text: as §4, §5, §6

T47D cells = experiment: as above; type: cell-based; conditions: Homo sapiens, 24 hours treatment, read-out: IC 50 value
Text: as §4, §5, §6

WiDr cells = experiment: as above; type: cell-based; conditions: Homo sapiens, 24 hours treatment, read-out: IC 50 value
Text: as §4, §5, §6

[5] = test system: several cancer cell lines; experiment: Cytotoxic assay on several cancer cell lines (summary statement); type: cell-based; conditions: several cancer cell lines (Table 3)
Text: as §1, §2, §3

4T1 cells [6] = conditions: read-out: IC 50 value; cited from earlier work
MCF-7 cells [7] = test system: MCF-7 cells; set-up: method as in PMID 31548601; conditions: read-out: IC 50 value; cited from earlier work
K562 cells [8] = test system: K562 cells; set-up: method as in PMID 31619723; conditions: read-out: IC 50 value; cited from earlier work
[9] = aqueous; cited from earlier work

SMILES: Cc1cc(C=C2CCC(=Cc3cc(C)c(O)c(C)c3)C2O)cc(C)c1O (centres unmarked) [CCA-1.1, 2,5-bis(4-hydroxy-3,5-dimethylbenzylidene)cyclopentanol]
- Appearance of solution after storage for 48 hours [1]: still looked clear
- Absorbance change (stability) up to 3 hours [1]: unchanged absorbance up to 3 hours
- Solubility compared at a concentration of 100 µM ([1]; distilled water, buffer pH 1.0 and pH 7.4, 100 µM): more soluble than PGV-1 and curcumin
- Solubility relative to PGV-1 ([1]; pH 1.0, 7.4, distilled water, observations up to 48 hours): two times more soluble than PGV-1
- IC50 (K562 cells [2]; Homo sapiens, K562, 24 hours treatment, read-out: IC 50 value): 293 nM
- Cytotoxic potency relative to PGV-1 (K562 cells [2]; K562): twice stronger than PGV-1
- IC50 (4T1 cells [3]): 3000 nM
- IC50 (Caco2 cells): 5 µM
- IC50 (HCC1954 cells): 6 µM
- IC50 (MCF-7 cells [4]): < 10 µM
- IC50 (MCF-7/EV cells): 8 µM
- IC50 (MCF-7/HER2 cells): 5 µM
- IC50 (NIH-3T3 cells): > 50 µM
- IC50 (T47D cells): 7 µM
- IC50 (WiDr cells): 5 µM
- IC50 [5]: < 10 µM

SMILES: Cc1cc(C=C2CCC(=Cc3cc(C)c(O)c(C)c3)C2=O)cc(C)c1O [PGV-1, 2,5-bis(4-hydroxy-3,5-dimethylbenzylidene)cyclopentanone]
- Appearance of solution at 50 µM ([1]; 50 µM (data not shown)): appeared clear
- Appearance of solution after storage for 48 hours [1]: appeared with some sediment or crystal
- Absorbance change (stability) up to 3 hours [1]: tended to decrease the absorbance at 3 hours
- IC50 (Caco2 cells): 12 µM
- IC50 (HCC1954 cells): 3 µM
- IC50 (MCF-7/EV cells): 8 µM
- IC50 (MCF-7/HER2 cells): 7 µM
- IC50 (NIH-3T3 cells): > 50 µM
- IC50 (T47D cells): 8 µM
- IC50 (WiDr cells): > 10 µM
- IC50 [5]: < 10 µM
- IC50 (4T1 cells [6]): 4 µM
- IC50 (MCF-7 cells [7]): 6 µM
- IC50 (K562 cells [8]): 450 nM

SMILES: COc1cc(C=CC(=O)CC(=O)C=Cc2ccc(O)c(OC)c2)ccc1O [curcumin, 1,7-bis(4-hydroxy-3-methoxyphenyl)-1,6-heptadiene-3,5-dione]
- Absorbance change (stability) up to 3 hours [1]: tended to decrease the absorbance at 3 hours
- Solubility [9]: 40 µM (≈ 14.7 µg/mL)
